Results published in a compilation of properties of binary mixtures (doi:10.1016/j.molliq.2021.115373).

Assay: xn = mol fraction of the nth substance listed
Conditions: 101 kPa

CC[N+](C)(CC)CCOC.O=S(=O)([N-]S(=O)(=O)C(F)(F)F)C(F)(F)F + O=C1CCCO1
Conditions	electrical conductivity [S/m]	viscosity [mPa·s]
288.15 K, x1 = 0.3003	0.818	14.42
288.15 K, x1 = 0.4007	0.638	21.86
288.15 K, x1 = 0.6999	0.342	87.8
288.15 K, x1 = 0.8001	0.271	118.2
288.15 K, x1 = 0.9003	0.189	159.3
288.15 K, x1 = 1	0.147	225
293.15 K, x1 = 0.2006	1.16	7.44
293.15 K, x1 = 0.4007	0.737	18.34
293.15 K, x1 = 0.6002	0.508	49.4
293.15 K, x1 = 0.6999	0.429	67.7
293.15 K, x1 = 0.8001	0.336	90
293.15 K, x1 = 0.9003	0.246	118.6
298.15 K, x1 = 0.2006	1.29	6.32
298.15 K, x1 = 0.3003	1.03	10.43
298.15 K, x1 = 0.4998	0.688	24.17
298.15 K, x1 = 0.6002	0.595	37.96
298.15 K, x1 = 0.6999	0.504	51.5
298.15 K, x1 = 0.8001	0.413	68.2
298.15 K, x1 = 0.9003	0.31	88.5
298.15 K, x1 = 1	0.24	119.2
303.15 K, x1 = 0.1004	1.41	2.972
303.15 K, x1 = 0.2006	1.45	5.4
303.15 K, x1 = 0.3003	1.16	8.87
303.15 K, x1 = 0.4007	0.956	12.54
303.15 K, x1 = 0.4998	0.791	19.36
303.15 K, x1 = 0.6002	0.688	29.46
303.15 K, x1 = 0.8001	0.488	51.5
303.15 K, x1 = 0.9003	0.382	67.4
308.15 K, x1 = 0.1004	1.52	2.401
308.15 K, x1 = 0.2006	1.59	4.634
308.15 K, x1 = 0.6002	0.786	23.31
308.15 K, x1 = 0.6999	0.693	30.64
308.15 K, x1 = 0.8001	0.576	39.71
308.15 K, x1 = 1	0.365	67.7
313.15 K, x1 = 0.3003	1.43	6.47
313.15 K, x1 = 0.4007	1.21	8.94
313.15 K, x1 = 0.4998	1.02	12.56
313.15 K, x1 = 0.6002	0.898	18.36
313.15 K, x1 = 0.6999	0.805	24.16
313.15 K, x1 = 0.9003	0.545	39.51
313.15 K, x1 = 1	0.44	53
318.15 K, x1 = 0.1004	1.77	1.55
318.15 K, x1 = 0.2006	1.92	3.357
318.15 K, x1 = 0.3003	1.57	5.5
318.15 K, x1 = 0.4007	1.35	7.5
318.15 K, x1 = 0.4998	1.15	10.47
318.15 K, x1 = 0.6999	0.916	19.03
318.15 K, x1 = 0.8001	0.782	24.04
318.15 K, x1 = 0.9003	0.645	30.79
318.15 K, x1 = 1	0.521	40.98
323.15 K, x1 = 0.1004	1.89	1.264
323.15 K, x1 = 0.3003	1.72	4.76
323.15 K, x1 = 0.6999	1.03	14.91
323.15 K, x1 = 0.8001	0.888	18.65
323.15 K, x1 = 0.9003	0.739	24.72
323.15 K, x1 = 1	0.609	33.06
328.15 K, x1 = 0.1004	2.02	1.025
328.15 K, x1 = 0.2006	2.22	2.567
328.15 K, x1 = 0.3003	1.88	4.154
328.15 K, x1 = 0.4007	1.64	5.51
328.15 K, x1 = 0.4998	1.44	7.25
328.15 K, x1 = 0.6999	1.15	11.99
328.15 K, x1 = 0.8001	1	14.94
328.15 K, x1 = 0.9003	0.844	19.43
333.15 K, x1 = 0.1004	2.15	0.838
333.15 K, x1 = 0.2006	2.38	2.237
333.15 K, x1 = 0.3003	2.07	3.578
333.15 K, x1 = 0.4998	1.59	6.07
333.15 K, x1 = 0.6002	1.42	7.65
333.15 K, x1 = 0.6999	1.29	9.72
333.15 K, x1 = 0.8001	1.12	11.69
333.15 K, x1 = 0.9003	0.956	16.5
338.15 K, x1 = 0.1004	2.27	0.686
338.15 K, x1 = 0.2006	2.56	1.957
338.15 K, x1 = 0.3003	2.24	3.117
338.15 K, x1 = 0.4007	1.99	4.059
338.15 K, x1 = 0.4998	1.75	5.21
338.15 K, x1 = 0.6002	1.56	6.3
338.15 K, x1 = 0.6999	1.41	7.76
338.15 K, x1 = 0.8001	1.24	9.36
338.15 K, x1 = 0.9003	1.07	13.36
338.15 K, x1 = 1	0.935	17.49
343.15 K, x1 = 0.1004	2.41	0.558
343.15 K, x1 = 0.2006	2.74	1.718
343.15 K, x1 = 0.4007	2.17	3.53
343.15 K, x1 = 0.6002	1.72	4.94
343.15 K, x1 = 0.6999	1.54	6.16
343.15 K, x1 = 0.8001	1.37	7.56
343.15 K, x1 = 0.9003	1.2	10.95
343.15 K, x1 = 1	1.05	14.91
348.15 K, x1 = 0.1004	2.56	0.458
348.15 K, x1 = 0.2006	2.91	1.517
348.15 K, x1 = 0.3003	2.63	2.346
348.15 K, x1 = 0.4998	2.12	3.777
348.15 K, x1 = 0.6002	1.88	4.265
348.15 K, x1 = 0.8001	1.5	6.13
348.15 K, x1 = 1	1.18	12.3
353.15 K, x1 = 0.1004	2.7	0.392
353.15 K, x1 = 0.4007	2.55	2.74
353.15 K, x1 = 0.4998	2.3	3.376
353.15 K, x1 = 0.6999	1.84	4.04
353.15 K, x1 = 0.8001	1.64	4.81
353.15 K, x1 = 1	1.31	10.28
